Entries after “also recorded” stand apart in the source; their conditions may differ. Where two headings read alike, the source gives them in different places. Non-standard residues stand in square brackets, D forms with d. Residues, ends and D or L forms follow the SMILES beside them. *: point of attachment. Dolaproine = CO[C@@H]([C@@H]1CCCN1)[C@@H](C)C(=O)O; Dil = CC[C@H](C)[C@H](NC)[C@@H](CC(=O)O)OC; X1 = C[C@@H](N*)[C@@H](O)c1ccccc1; NMeV = CN[C@H](C(=O)O)C(C)C
Key:
HCT-116 cells [1] = test: Cell cycle analysis by FACS with PI staining; assay type: cell-based, Human
Protocol: (§1) Cells were treated with 0, 1, 2, or 5 nM MMAE for 24 hours and then fixed in methanol. Cells were treated with RNAse, stained with propidium iodide and analyzed by FACS using FloJo software.
(§2) Cells were treated with MMAE for 24 hours and then fixed in methanol. Cells were treated with RNAse, stained with propidium iodide (PI), and analyzed by FACS using FlowJo software.

PANC-1 cells [2] = test: Cell cycle analysis by FACS with PI staining; assay type: cell-based, Human; conditions: 2 nmol/L MMAE, 24 hours
Protocol: as §1, §2

HCT-116 cells [3] = test: Alamar Blue cell viability assay; assay type: cell-based, Human
Protocol: Alamar Blue (also known as resazurin) was added to the cells and allowed to incubate for 2 hrs at 37° C. Plates were analyzed using a plate reader with fluorescence measured at 560 nm. For irradiated cells, cells were treated with MMAE overnight followed by 6 Gy.
(§3) Alamar Blue (resazurin) was added to the cells and allowed to incubate for 2 hrs at 37° C. Plates were analyzed using a plate reader with fluorescence measured at 560 nm.
Cells were plated in 96-well plates and exposed to MMAE or paclitaxel for 72 hours and analyzed at 560 nm. For irradiated cells, cells were treated with MMAE overnight followed by 6 Gy.

HCT-116 cells [4] = test: Clonogenic survival assay with IR; assay type: cell-based, Human
Protocol: (§4) Cells were treated with 0, 1, 2, or 5 nM of MMAE for 24 hours and then irradiated with 0, 2, or 6 Gy. Following IR, cells were counted, re-plated at varying cell numbers in drug free media. Colonies were counted […]. Colonies were then fixed and stained with crystal violet to quantify colonies.
(§5) Cells were treated with MMAE for 24 hours and then irradiated with 0 to 8 Gy. Following IR, cells were replated in drug-free media. Colonies formed over 10 to 14 days and were counted.

PANC-1 cells [5] = test: Clonogenic survival assay with IR; assay type: cell-based, Human
Protocol: as §4, §5

XPA-1 cells = test: Neutral comet assay (DNA double strand breaks); assay type: cell-based; conditions: MMAE overnight, then IR
Protocol: Cells were treated for indicated length and doses of MMAE followed by 6 Gy. Cells were harvested 15 minutes after IR and underwent neutral electrophoresis (Trevigen). Comet tails were counted in multiple fields (>60 cells per sample) and analyzed using CometScore (TriTek Corp).

HCT-116 cells [6] = test: γH2Ax immunostaining (foci formation); assay type: cell-based, Human
Protocol: (§6) Cells were grown on glass cover slips were treated with indicated concentrations of MMAE overnight and then irradiated. Two hours post IR, cells were fixed in 4% paraformaldehyde. Samples were then permeabilized in 0.25% Triton X-100, blocked in 1% BSA, incubated with antibody to γH2Ax for 1 hr at room temperature, washed, and incubated in secondary antibody for 1 hour at room temperature. Samples were incubated for 1 minute in a 1:5000 dilution of DAPI to label nuclei. The number of foci per cell was counted. 6-8 high power fields were counted per each group.
(§7) Cells grown on glass coverslips were treated with MMAE overnight and then irradiated. Two hours after IR, cells were fixed, permeabilized, and stained with antibody to […]. Nuclei were stained with 4′,6-diamidino-2-phenylindole (DAPI). Foci were counted in 6 to 8 high-power fields per group.

PANC-1 cells [7] = test: γH2Ax immunostaining (foci formation); assay type: cell-based, Human
Protocol: as §6, §7

HCT-116 cells [8] = test: Apoptosis (sub-G1 population) after MMAE and IR; assay type: cell-based, Human
Protocol: as §2
(§8) Because MMAE reduced clonogenic cell survival following IR, we tested whether MMAE increased apoptosis in irradiated cells. HCT-116 cells were treated with MMAE for 24 hours followed by IR. Cells were collected 24 hours after IR and the sub-G1 population (apoptotic) was measured. […] Because MMAE increased DNA double-strand breaks in irradiated cells (FIG. 34), we then evaluated whether MMAE altered the DNA damage response in irradiated cells. HCT-116 cells were treated with MMAE for 24 hours followed by 6 Gy. Cells were collected 1 hour after IR, and activation of the DNA damage checkpoint proteins CHK1 (pS345) and CHK2 (pT68) was ascertained (FIG. 36B). […] Upon DNA damage, histone H2A becomes phosphorylated at S139, γH2AX.

CHK1 (pS345) = test: Immunoblot for DNA damage checkpoint activation in HCT-116 cells; assay type: cell-based, Human; conditions: MMAE 24 hours, then 6 Gy
Protocol: (§9) MMAE- and IR-treated cells were harvested and lysed in RIPA buffer with protease and phosphatase inhibitors (Roche). Thirty micrograms of lysate underwent electrophoresis using 4% to 12% Bis-Tris gels (Life Technologies), transferred to polyvinylidene difluoride (PVDF) membranes, and incubated with indicated primary antibodies (Cell Signaling Technology). Blots were developed by ECL (Pierce).
as §8

cyclin B = test: Immunoblot for cell phase-specific cyclins in HCT-116 cells; assay type: cell-based, Human; conditions: 5 nmol/L MMAE, 24-hour exposure
Protocol: as §9
Because MMAE blocks cells in the radiosensitive G2-M phase of the cell cycle, we tested whether MMAE specifically interacted with IR. We hypothesized that while a short exposure to MMAE would not influence radiosensitivity, prolonged MMAE exposure with cells accumulating in G2-M would increase sensitivity to IR. DNA double-stand breaks are a hallmark of IR damage and can be measured by neutral comet assay. HCT-116 cells were treated with 5 nmol/L MMAE for varying lengths of time (0, 2, 4, or 24 hours) and then irradiated (FIG. 34A).

CAL-27 cells [9] = test: Cell cycle analysis by flow cytometry (PI); assay type: cell-based, Human; conditions: 5 nM, 24 hrs
Protocol: Cells were treated with RNAse, stained with propidium iodide (PI) and analyzed by FACS using FloJo software.

CAL-27 cells [10] = test: Alamar Blue cell viability assay; assay type: cell-based, Human; conditions: 72 hours
Protocol: as §3

LN-229 cells = test: Alamar Blue cell viability assay; assay type: cell-based; conditions: 72 hours
Protocol: as §3

SMILES: CC[C@H](C)[C@@H]([C@@H](CC(=O)N1CCC[C@H]1[C@H](OC)[C@@H](C)C(=O)N[C@H](C)[C@@H](O)c1ccccc1)OC)N(C)C(=O)[C@@H](NC(=O)[C@@H](NC)C(C)C)C(C)C [MMAE, monomethyl auristatin E] (H-[NMeV]V[Dil][Dolaproine]-X1)
- cell-cycle profile (HCT-116 cells [1]; 1 nmol/L MMAE, 24 hours): did not alter the cell-cycle profile
- cells blocked in G2/M (HCT-116 cells [1]; 5 nM (5 nmol/L) MMAE, 24 hrs): 50%
- cells blocked in G2-M (PANC-1 cells [2]): 50%
- IC50 (HCT-116 cells [3]; 72 hours exposure (Example 3), read-out: IC50): 1.7 nM
- IC50 (HCT-116 cells [3]; 72 hours exposure, read-out: IC50): 1.66 nM
- IC50 (HCT-116 cells [3]; MMAE alone, no IR (Example 3), read-out: IC50 for MMAE): 1.6 nM
- IC50 (HCT-116 cells [3]; MMAE alone, no IR, continuous exposure, viability 72 hours after initiation, read-out: IC50 for MMAE): 1.58 nM
- IC50 (HCT-116 cells [3]; MMAE and 6 Gy IR (Example 3), read-out: IC50 for MMAE): 0.8 nM
- IC50 (HCT-116 cells [3]; MMAE overnight then 6 Gy IR, continuous exposure, viability at 72 hours, read-out: IC50 for MMAE): 0.78 nM
- surviving fraction at 2 Gy (SF2) vs vehicle (HCT-116 cells [4]; 1 nM MMAE overnight): not significantly different
- clonogenic survival curve vs vehicle (HCT-116 cells [4]; 5 nM MMAE overnight, then irradiated, re-plated drug free): loss of the shoulder region of the survival curve at 2 Gy; also recorded: increased tumor cell kill at doses as low as 2 Gy
- surviving fraction at 2 Gy (SF2) vs vehicle (HCT-116 cells [4]; 2 and 5 nM MMAE overnight): significant reduction
- clonogenic survival curve vs vehicle (PANC-1 cells [5]; 2 nM MMAE overnight, then irradiated, re-plated drug free): loss of the shoulder region of the survival curve at 2 Gy; also recorded: increased tumor cell kill at doses as low as 2 Gy
- colony formation (PANC-1 cells [5]; 5 nM MMAE): Too few colonies formed
- surviving fraction at 2 Gy (SF2) vs vehicle (PANC-1 cells [5]; 1 or 2 nM MMAE overnight, 2 Gy): significantly reduced
- comet tail length (XPA-1 cells): significantly increased comet tail length
- γH2AX foci formation vs IR alone (HCT-116 cells [6]; MMAE pre-treatment, then IR): also seen in HCT-116 cells; also recorded: significantly increased
- DNA damage (γH2AX) (HCT-116 cells [6]; nonirradiated cells): did not alter DNA damage
- γH2AX foci formation vs IR alone (PANC-1 cells [7]; MMAE pre-treatment, then IR): further significant enhancement; also recorded: significantly increased
- γH2AX staining vs vehicle (PANC-1 cells [7]; non-irradiated cells): did not significantly increase; also recorded: did not alter DNA damage
- apoptosis, IR combined with MMAE vs MMAE (HCT-116 cells [8]; MMAE 24 hours then IR, collected 24 hours after IR): no further increase in apoptosis
- apoptosis vs vehicle (HCT-116 cells [8]; MMAE alone, 24 hours): significant increase in apoptosis
- CHK1 activation in irradiated cells (CHK1 (pS345)): enhanced CHK1 activation
- accumulation of cyclins (cyclin B): specific accumulation of the G2-M cyclin B
- cells in G2/M (CAL-27 cells [9]): 60%
- IC50 (CAL-27 cells [10]): 1.1 nM
- IC50 (LN-229 cells): 3.8 nM
